US11331319B2, “Combination treatment for neuropsychiatric disorders” (UNIVERSITY OF MASSACHUSETTS, priority 2017, dated 2022)

Assays:
[1] = tested on: N-methyl-D-aspartate receptor (NMDAR); details: cited from earlier work; for Finding: schizophrenia treatment; for Limitation: efficacy / Limitation: toxicity / therapeutic window: Table 3
[2] = tested on: young adults with uncomplicated type 1 diabetes; details: 7000 mg per day, one week; cited from earlier work
[3] = over-the-counter nutrition supplement; cited from earlier work
[4] = tested on: patients with schizophrenia; assay: 16-week adjunctive minocycline clinical trial: SANS and PANSS; assay type: in vivo, human; details: minocycline 200 mg per day added to risperidone, N = 27, week 16 value minus baseline value, mean
Description: Adult patients with schizophrenia were recruited from the 1st Affiliated Hospital of Kunming Medical University, and the Mental Health Center of Yunnan Province, China, between June 2010 and November 2011. The diagnosis of schizophrenia was made by trained clinical interviewers using the structured clinical interview for DSM-IV diagnosis (SCID). First et al., In: Structured Clinical interview for DSM-IV Axis I Disorders-Clinician Version (SCID-CV). Washington, D.C.: American Psychiatry Press. (1996). Other inclusion criteria included: (1) age 18 to 40 years old; (2) disease duration ≤5 years; (3) on stable dose of risperidone for at least 4 weeks prior to screening; (4) a stable living arrangement. Exclusion criteria were: (1) being allergic to minocycline or tetracycline; (2) a psychiatric diagnosis other than schizophrenia (determined by SCID); (3) serious, unstable medical conditions; (4) diagnosis of diabetes mellitus; (4) female patients who were planning to become pregnant, or were pregnant or lactating were also excluded from the study. The study was approved by the ethics committee of the 1st Affiliated Hospital of Kunming Medical University.
(§1) After screening, each eligible subject underwent baseline assessments including the Scale for the Assessment of Negative Symptoms (SANS), the Positive and Negative Syndrome Scale (PANSS), and blood draw for lab tests. Andreasen N C., “Negative symptoms in schizophrenia: Definition and reliability” Arch. Gen. Psychiatry 39:784-788 (1982); and Kay et al., “The positive and negative syndrome scale (PANSS) for schizophrenia” Schizophr. Bull. 13:261-276 (1987). Subjects continued to take risperidone at the same dose throughout the study, and were randomized in a 1:1 ratio to receive either minocycline (200 mg per day) or placebo for 16 weeks. At week 16, baseline assessments were repeated.
Statistical analysis was performed using SPSS (version 24.0, IBM Corp, Armonk, N.Y.). Descriptive statistics were performed to summarize demographic and clinical characteristics of the study sample. Group comparisons were performed using the independent t test for continuous variables, and the Fisher exact test or Chi-square test for categorical variables. Analysis of covariance (ANCOVA) was used to compare change scores from baseline to week 16 between the two treatment groups controlling for baseline scores and potential confounding variables. For all analyses, a p value less than 0.05 (2-tailed) was used for statistical significance.

[5] = tested on: NO metabolites (nitrites and nitrates); assay: Plasma levels of NO metabolites, Griess method (minocycline trial); assay type: in vivo, human; details: minocycline 200 mg per day, N = 27, fasting plasma, week 16 value minus baseline value, mean
Description: as §1
(§2) Anthropometric measures included weight, height and body mass index (BMI). Blood samples were obtained 11 h (±1 h) after the completion of the last meal the night before. Subjects were allowed to drink water during the fasting period. Laboratory assays for plasma levels of TNFα, and IL-1β were performed using the enzyme-linked immunosorbent assay (ELISA) (Bender Med Systems GmbH Campus Vienna Biocenter 2 A-1030 Vienna, Austria, Europe). Plasma levels of NO metabolites (nitrites and nitrates) were measured using the Griess method (Cortas & Wakid 1990) (Nanjing Jiancheng Bioengineering Institute, China).
(§3) Statistical analysis was performed using SPSS (version 24.0, IBM Corp, Armonk, N.Y.). […]

[6] = tested on: IL-1β; assay: Plasma IL-1β by ELISA (minocycline trial); assay type: in vivo, human; details: minocycline 200 mg per day, N = 27; fasting plasma; week 16 value minus baseline value; mean; listed as Minocycline
Description: as §1, §2, §3

[7] = tested on: TNFα; assay: Plasma TNFα by ELISA (minocycline trial); assay type: in vivo, human; details: minocycline 200 mg per day, N = 27; fasting plasma; week 16 value minus baseline value; mean; listed as Minocycline
Description: as §1, §2, §3

[8] = Body mass index (minocycline trial); assay type: in vivo, human; details: minocycline 200 mg per day, N = 27; week 16 value minus baseline value; mean
Description: as §1, §2, §3

[9] = cited from earlier work
[10] = underlying neurologic disorders, co-administration of levodopa and sapropterin; cited from earlier work

## C[C@@H](N)C(=O)O [D-Alanine]
[1]
  Finding: Improvement in overall

## N[C@@H]1CONC1=O [D-Cycloserine]
[1]
  Limitation: efficacy: Decrease in efficacy over time
  Limitation: toxicity / therapeutic window: Very narrow therapeutic window
  Finding: Inconsistent finding; improvement

## N[C@H](CO)C(=O)O [D-Serine]
[1]
  Limitation: toxicity / therapeutic window: Nephrotoxicity
  Finding: Improvement in overall

## NCC(=O)O [Glycine]
[1]
  Limitation: efficacy: High doses required to reach therapeutic effects
  Finding: Improvement in overall

## N=C(N)NCCC[C@H](N)C(=O)O [L-arginine]
[2]
  Effect of supplementation: improved oxidative stress status, increased blood flow and exercise responses
[3]
  Safety and tolerability: considered safe and well tolerated in general

## CCCCCNCC(N)=O [Milacemide]
[1]
  Finding: No significant clinical benefit

## CNCC(=O)O [Sarcosine]
[1]
  Finding: Improvment in overall

## CN(C)c1ccc(O)c2c1C[C@H]1C[C@H]3[C@H](N(C)C)C(O)=C(C(N)=O)C(=O)[C@@]3(O)C(O)=C1C2=O [minocycline]
[4]
  PANSS general psychopathology score, week 16 change: −14.5
  PANSS negative symptom score, week 16 change: −10.8±5.9
  PANSS positive symptom score, week 16 change: −8.5
  PANSS total score, week 16 change: −32.9±17.1
  SANS total score, week 16 change: −31.2±25.5
[4]; listed as Minocycline
  PANSS negative symptom score, week 16 change: −10.8
  PANSS total score, week 16 change: −32.9
  SANS total score, week 16 change: −31.2
[5]
  Nitric oxide (plasma levels of NO metabolites), week 16 change: -8.19 ± 18.09 µmol/L
[5]; listed as Minocycline
  Nitric oxide (plasma levels of NO metabolites), week 16 change: -8.19 µmol/L
[6]
  IL-1β plasma level, week 16 change: -0.99 pg/mL
[7]
  TNF-α plasma level, week 16 change: -0.97 pg/mL
[8]
  BMI, week 16 change: 1.98 kg/m^2
[9]; in humans
  Tolerability: well tolerated in humans
[9]; in vivo, po
  Oral bioavailability: high oral bioavailability

## C[C@H](O)[C@H](O)[C@H]1CNc2nc(N)[nH]c(=O)c2N1 [sapropterin]
[10]
  Patients who experienced confusions, exacerbation of convulsions, over-stimulation, or irritability: 3 patients
